Experimental data taken from patent publication US11401278B2, “Macrocyclic indole derivatives” (The Broad Institute, Inc., priority 2017, dated 2022).
Where a name gives a salt, the structure may show the parent alone. Read-outs that look alike come from different tables or passages of the source.

Legend:
[1] = amine bond, 60.0 °C
MCL-1 = MCL-1 (Homo sapiens (Human), UniProt Q07820, K194A/K197A/R201A); test: Protein-protein interaction assay MCL-1/Noxa BH3 peptide (MCL-1 assay, TR-FRET); assay type: binding; details: MBP-MCL-1 / Noxa BH3 peptide, median
Experimental: Protein-Protein Interaction Assay: MCL-1/Noxa BH3 Peptide (MCL-1 Assay)
The dose-dependent inhibition by the compounds described in this invention of the interaction between MCL-1 and the BH3 domain of Noxa (both human) was determined using a steady state binding competition assay with time-resolved fluorescence energy transfer (TR-FRET) readout. For that purpose MCL-1 (amino acids 173-329, N-terminal fused to Maltose Binding Protein (MBP) SEQ ID 1) and a synthetic Noxa BH3-derived peptide of sequence Biotin-PEG2-PEG2-PAELEVE-Nva-ATQLRRFGDKLNFRQKLL-amide (SEQ ID 2) served as protein receptor and tracer ligand respectively. The MBP-MCL-1 was purchased from Beryllium (Bedford, Mass., USA). The expression and purification of this protein construct has been described elsewhere (DOI:10.1371/journal.pone.0125010). The Noxa BH3-derived peptide can be obtained from e.g. Biosyntan (Berlin, Germany).
In the assay 11 different concentrations of each compound (0.1 nM, 0.33 nM, 1.1 nM, 3.8 nM, 13 nM, 44 nM, 0.15 μM, 0.51 μM, 1.7 μM, 5.9 μM and 20 μM) were typically measured as duplicates in the same microtiter plate. For that, 100-fold concentrated DMSO solutions were prepared by serial dilutions (1:3.4) of a 2 mM stock solution in a clear, 384-well microtiter plate (Greiner Bio-One, Frickenhausen, Germany). From there, 50 nl were transferred in a dark test plate (Greiner Bio-One, Frickenhausen, Germany). The assay was initiated by addition of 2 μl of a 2.5-fold concentrated MBP-MCL-1 solution (usually for a 1 nM end concentration in 5 μl reaction volume) in aqueous assay buffer [50 mM Tris/HCl pH 7, 100 mM sodium chloride (NaCl), 50 mM potassium fluoride (KF), 0.005% Tween-20, 2 mM DTT, 0.1% bovine gamma globulin (BGG)] to the compounds in the assay plate. This was followed by a 10-minute incubation step at 22° C. for pre-equilibration of the putative complex between MBP-MCL-1 and the compounds. After that, 3 μl of a 1.67-fold concentrated solution (in assay buffer) consisting of Noxa BH3-derived peptide (1 nM end concentration) and TR-FRET detection reagents [1.67 nM anti-MBP-Eu cryptate and 1.67 nM streptavidin-XL665 (both from Cisbio Bioassays, Codolet, France)], were added.
The mixture was incubated in the dark for one hour at 22° C. and then overnight at 4° C. The formation of MCL-1/Noxa complexes was determined by measuring the resonance energy transfer of the anti-MBP-Eu-cryptate antibody to the streptavidin-XL665 present in the reaction. For that purpose, the fluorescence emission at 620 nm and 665 nm after excitation at 330-350 nm was measured in a TR-FRET measuring instrument, for instance a Rubystar or a Pherastar (both from BMG Lab Technologies, Offenburg, Germany) or a Viewlux (Perkin-Elmer). The ratio of the emission at 665 nm and at 622 nm was used as indicator of the amount of MCL-1/NOXA complexes present.
The resulting data (ratio) were normalized, taking 0% inhibition as the mean value of control measurements (usually 32 data points) where all reagents were included. In this case 50 nl DMSO were used instead of compounds. A 100% inhibition corresponded to the mean value of control measurements (usually 32 data points) where all reagents except MCL-1 were included. IC50 values were determined by regression analysis based on a 4 parameter equation (minimum, maximum, IC50, Hill; Y=Max+(Min−Max)/(1+(X/IC50)^HiII) using the Screener Software (Genedata).

SUDHL10 [2] = test: Induction of cytotoxicity (Assay 6), SUDHL10; details: read-out: Cytotox SUDHL10 [M] (median) IC50, CellTiter-Glo, 5 hours, SUDHL10
Experimental: (§11) Assay 6 Induction of Cytotoxicity Upon Treatment of Cells with Selected Compounds
(§12) Therefore, cytotoxicity assays were run in parallel in SUDHL5 and SUDHL10 cells.
(§13) The different cell lines were plated in culture medium (RPMI 1640 [GIBCO #22400-089] supplemented with 10% Fetal Bovine Serum) at a density of 3,300 cells in 30 μl/well in a sterile, solid black, flat bottom, polystyrene, TC-treated 384-well microplate (Corning #3571) using Multidrop Combi Reagent Dispenser. As a control, medium without cells was also added to the plate. Cells were incubated in a humidified incubator at 37° C. overnight. On the next day, the cells were treated with compounds (stock solution, 10 mM in DMSO) using the HP D300 Digital Dispenser in a concentration range of 3.3×10e-5 M (33 μM) to 5×10e-9 M (5 nM) in a single-dot curve with at least 16 dilutions and a DMSO concentration of 0.33%. Rim wells were excluded. The cells were incubated for 5 hours in a humidified incubator at 37° C. After this incubation, 30 μl of CellTiter-Glo® Luminescent Cell Viability reagent (Promega, G7573) was added to each well using the Multidrop Combi Reagent Dispenser, followed by 15 minutes incubation on a shaker at room temperature. Finally, luminescence was read at 0.1 ms, with a gain of 3000 using the PHERAstar FS microplate reader (BMG Labtech).

SUDHL5 [3] = test: Induction of caspase-3/7 activity (Assay 4), SUDHL5; assay type: cell-based; details: caspase-3/7 induction, 3 hours, median
Experimental: (§1) Cellular Assays Assay 4 Induction of Caspase-3/7 Activity Upon Treatment of Cells with Selected Compounds
(§2) The BH3-domain of MCL-1 sequesters pro-apoptotic proteins, thereby inhibiting apoptosis. In contrast, MCL-1 inhibitors are expected to antagonize this effect leading to an increase in apoptosis, which can be determined by measuring the activity of caspase-3/7.
(§3) The activity of caspase-3/7 was determined in DLBCL (Diffuse large B-cell lymphoma) cell lines (SUDHL5 and SUDHL10) upon treatment with different compounds, using the Caspase-Glo® 3/7 reagent from Promega (G8092).
(§4) Rim wells were excluded. The cells were incubated for 3 hours in a humidified incubator at 37° C.
(§5) For the evaluation of the results, the background measured with “medium-only” was subtracted from all other values. […] The Bella DRC Master Sheet was used to calculate EC50s, with fixed C0=1 and CI=plateau/max induction for the reference compound.

HMC-1-8 = test: Antiproliferation assay (Assay 7), HMC-1-8; assay type: cell-based; details: CellTiter-Glo, 72 hours, several values per example, read-out: Antiproli HMC-1-8 [M] IC50
Experimental: (§6) Assessment of the Anti-Proliferative Effect of Compounds in Different Cell Lines
(§7) The impact of compounds on the proliferation of different cell lines was assessed using the CellTiter-Glo® Luminescent Cell Viability reagent from Promega (G7573).
(§8) In parallel, cells were plated in a reference (day 0) plate for time zero determination.
(§9) Rim wells were excluded. The cells were incubated for 72 hours in a humidified incubator at 37° C. The day 0 plate was measured by adding 30 μL/well of CTG solution (CellTiter-Glo® Luminescent Cell Viability reagent, Promega G7573) to time zero wells in the reference plate followed by a 10 minutes incubation and luminescence reading at 0.1 ms. using the PHERAstar FS microplate reader (BMG Labtech).
(§10) After 72 hours incubation, the treated plates were measured in the same way as the day 0 plate mentioned above.

AMO-1 = test: Antiproliferation assay (Assay 7), AMO-1; assay type: cell-based; details: CellTiter-Glo, 72 hours, several values per example, read-out: Antiproli AMO-1 [M] IC50
Experimental: as §6, §7, §8, §9, §10

SUDHL5 [4] = test: Antiproliferation assay (Assay 7), SUDHL5; assay type: cell-based; details: CellTiter-Glo, 72 hours, median, read-out: Antiproli SUDHL5 [M] (median) IC50
Experimental: as §6, §7, §8, §9, §10

SUDHL10 [5] = test: Induction of caspase-3/7 activity (Assay 4), SUDHL10; assay type: cell-based; details: caspase-3/7 induction, 3 hours, median
Experimental: as §1, §2, §3, §4, §5

SUDHL5 [6] = test: Induction of cytotoxicity (Assay 6), SUDHL5; details: read-out: Cytotox SUDHL5 [M] (median) IC50, CellTiter-Glo, 5 hours, SUDHL5
Experimental: as §11, §12, §13

Chain of MCL-1 (Q07820 whole entry K194A/K197A/R201A, looked up): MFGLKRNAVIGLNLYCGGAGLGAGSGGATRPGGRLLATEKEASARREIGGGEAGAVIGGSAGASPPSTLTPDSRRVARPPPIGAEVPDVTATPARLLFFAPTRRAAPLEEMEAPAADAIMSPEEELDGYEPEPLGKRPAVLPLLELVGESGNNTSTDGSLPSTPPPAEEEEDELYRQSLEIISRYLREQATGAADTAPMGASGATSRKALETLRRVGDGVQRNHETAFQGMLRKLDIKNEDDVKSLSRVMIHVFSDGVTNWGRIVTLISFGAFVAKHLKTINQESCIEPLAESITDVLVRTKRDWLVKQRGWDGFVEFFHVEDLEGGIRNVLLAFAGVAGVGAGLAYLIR

Work on `CCOC(=O)c1c(CCCO[Si](C)(C)C(C)(C)C)c2ccc(Cl)c3c2n1CCCS(=O)(=O)N(C)Cc1nn(C)c(CC)c1-3` yielded a ring closure, yield of all isomers ([1]; from CCOC(=O)c1[nH]c2c(-c3c(CN(C)S(=O)(=O)CCCCl)nn(C)c3CC)c(Cl)ccc2c1CCCO[Si](C)(C)C(C)(C)C, Cs2CO3, MeCN, 50.0 mM, 18.0 h) of 74.6%.
Compound `CCOC(=O)c1c(CCCO[Si](C)(C)C(C)(C)C)c2ccc(F)c3c2n1CCCS(=O)(=O)N(C)Cc1nn(C)c(C)c1-3` has a ring closure, yield of all isomers ([1]; from CCOC(=O)c1[nH]c2c(-c3c(CN(C)S(=O)(=O)CCCCl)nn(C)c3C)c(F)ccc2c1CCCO[Si](C)(C)C(C)(C)C, Cs2CO3, NaI, acetonitrile, 87.3 mM, 240.0 h) of 47.7%.
Work on `CCOC(=O)c1c(CCCOc2cccc3ccccc23)c2cccc3c2n1CCCS(=O)(=O)N(CCCN1CCCC1=O)Cc1nn(C)c(CC)c1-3` yielded a ring closure, yield of all isomers ([1]; from CCOC(=O)c1[nH]c2c(-c3c(CN(CCCN4CCCC4=O)S(=O)(=O)CCCCl)nn(C)c3CC)cccc2c1CCCOc1cccc2ccccc12, NaH, DMF, 25.1 mM, 22.0 h) of 80.5%.
`CCOC(=O)c1c(CCCOc2cccc3ccccc23)c2cccc3c2n1CCCS(=O)(=O)N(C)C(CCN1CCOCC1)c1nn(C)c(C)c1-3` (stereo not drawn) showed a ring closure, yield of all isomers ([1]; from CCOC(=O)c1[nH]c2c(-c3c(C(CCN4CCOCC4)N(C)S(=O)(=O)CCCCl)nn(C)c3C)cccc2c1CCCOc1cccc2ccccc12, Cs2CO3, acetonitrile, 49.6 mM, 48.0 h) of 99.7%.
With `CCOC(=O)c1c(CCCOc2cccc3cc(F)ccc23)c2ccc(Cl)c3c2n1CCCS(=O)(=O)N(CC)Cc1nn(C)c(CC)c1-3` the ring closure, yield of all isomers ([1]; from CCOC(=O)c1[nH]c2c(-c3c(CN(CC)S(=O)(=O)CCCCl)nn(C)c3CC)c(Cl)ccc2c1CCCOc1cccc2cc(F)ccc12, cesium carbonate, acetonitrile, 50.9 mM, 48.0 h) was 73%.
In the case of `CCOC(=O)c1c(CCCOc2cccc3cc(F)ccc23)c2ccc(Cl)c3c2n1CCCS(=O)(=O)N(C)C(CCN1CCOCC1)c1nn(C)c(CC)c1-3` (racemic), the ring closure, yield of all isomers ([1]; from CCOC(=O)c1[nH]c2c(-c3c(C(CCN4CCOCC4)N(C)S(=O)(=O)CCCCl)nn(C)c3CC)c(Cl)ccc2c1CCCOc1cccc2cc(F)ccc12, cesium carbonate, acetonitrile, 49.5 mM, 48.0 h) was 44.9%.
Work on `CCOC(=O)c1c(CCCO[Si](C)(C)C(C)(C)C)c2ccc(Cl)c3c2n1CCCS(=O)(=O)N(C1CC1)Cc1nn(C)c(C)c1-3` yielded a ring closure, yield of all isomers ([1]; from CCOC(=O)c1[nH]c2c(-c3c(CN(C4CC4)S(=O)(=O)CCCCl)nn(C)c3C)c(Cl)ccc2c1CCCO[Si](C)(C)C(C)(C)C, Cs2CO3, acetonitrile, 50.4 mM, 48.0 h) of 60%.
Work on `CCOC(=O)c1c(CCCOc2cccc3cc(F)ccc23)c2ccc(Cl)c3c2n1CCCS(=O)(=O)N(C)C(CCC1CCOCC1)c1nn(C)c(CC)c1-3` (racemic) yielded a ring closure, yield of all isomers ([1]; from CCOC(=O)c1[nH]c2c(-c3c(C(CCC4CCOCC4)N(C)S(=O)(=O)CCCCl)nn(C)c3CC)c(Cl)ccc2c1CCCOc1cccc2cc(F)ccc12, cesium carbonate, acetonitrile, 34.4 mM, 48.0 h) of 77%.
Compound `CCOC(=O)c1c(CCCOc2cccc3cc(F)ccc23)c2ccc(Cl)c3c2n1CCCS(=O)(=O)N(Cc1ccc(OC)cc1OC)Cc1nn(C)c(C)c1-3` has a ring closure, yield of all isomers ([1]; from CCOC(=O)c1[nH]c2c(-c3c(CN(Cc4ccc(OC)cc4OC)S(=O)(=O)CCCCl)nn(C)c3C)c(Cl)ccc2c1CCCOc1cccc2cc(F)ccc12, cesium carbonate, acetonitrile, 51.5 mM, 16.0 h) of 48%.
`CCOC(=O)c1c(CCCOc2cccc3cc(F)ccc23)c2ccc(Cl)c3c2n1CCCS(=O)(=O)N(C)C(CCN1CCOCC1)c1nn(C)c(C)c1-3` (stereo not drawn) gave a ring closure, yield of all isomers ([1]; from CCOC(=O)c1[nH]c2c(-c3c(C(CCN4CCOCC4)N(C)S(=O)(=O)CCCCl)nn(C)c3C)c(Cl)ccc2c1CCCOc1cccc2cc(F)ccc12, cesium carbonate, acetonitrile, 37.4 mM, 48.0 h) of 82%.
With `CCc1c2c(nn1C)CN(C1CC1)S(=O)(=O)CCCn1c(C(=O)O)c(CCCOc3cccc4cc(F)ccc34)c3ccc(Cl)c-2c31` (single isomer, unassigned; enantiomer 2) [Example 55, (+)-4-chloro-14-cyclopropyl-3-ethyl-7-{3-[(6-fluoronaphthalen-1-yl)oxy]propyl}-2-methyl-13,13-dioxo-10,11,12,13,14,15-hexahydro-2H-13lambda^6-pyrazolo[3′,4′:4,5][1,2,8]thiadiazacycloundecino[6,7,8-hi]indole-8-carboxylic acid N-ethylethanamine Salt (Enantiomer 2)] the IC50 (MCL-1) was 0.016 µM, the IC50 (SUDHL10 [2]) was 1.3e-05 M and the EC50 (SUDHL5 [3]) was 8.9 µM. The IC50 (HMC-1-8) was 2.1e-05 M, the IC50 (AMO-1) was over 3.3e-05 M and the IC50 (SUDHL5 [4]) was 1.1e-05 M. For the same compound, the EC50 (SUDHL10 [5]) was 13 µM and the IC50 (SUDHL5 [6]) was 8.2e-06 M.
`CCOC(=O)c1c(CCCOc2cccc3ccccc23)c2cccc3c2n1CCCS(=O)(=O)N(CCN1CCCCC1)Cc1nn(C)c(CC)c1-3` showed a ring closure, yield of all isomers ([1]; from CCOC(=O)c1[nH]c2c(-c3c(CN(CCN4CCCCC4)S(=O)(=O)CCCCl)nn(C)c3CC)cccc2c1CCCOc1cccc2ccccc12, NaH, DMF, 25.0 mM, 21.0 h) of 69%.
`CCOC(=O)c1c(CCCO[Si](C)(C)C(C)(C)C)c2ccc(F)c3c2n1CCCS(=O)(=O)N(C)Cc1nn(C)c(CC)c1-3` showed a ring closure, yield of all isomers ([1]; from CCOC(=O)c1[nH]c2c(-c3c(CN(C)S(=O)(=O)CCCCl)nn(C)c3CC)c(F)ccc2c1CCCO[Si](C)(C)C(C)(C)C, Cs2CO3, acetonitrile, 50.0 mM, 72.0 h) of 55.2%.
For `CCOC(=O)c1c(CCCOc2cccc3cc(F)ccc23)c2ccc(Cl)c3c2n1CCCS(=O)(=O)N(C1CC1)Cc1nn(C)c(CC)c1-3`, the ring closure, yield of all isomers ([1]; from CCOC(=O)c1[nH]c2c(-c3c(CN(C4CC4)S(=O)(=O)CCCCl)nn(C)c3CC)c(Cl)ccc2c1CCCOc1cccc2cc(F)ccc12, cesium carbonate, acetonitrile, 47.2 mM, 16.0 h) was 91%.
